Test results taken from ChEMBL document CHEMBL1667744, “Structure--activity relationship studies of 1-(4-chloro-2,5-dimethoxyphenyl)-3-(3-propoxypropyl)thiourea, a non-nucleoside reverse transcriptase inhibitor of human immunodeficiency virus type-1” (Eur J Med Chem, 2011).

Columns and labels:
[1] = test system: Human immunodeficiency virus 1; assay: Antiviral activity against HIV1 pseudovirus infected in human B cell assessed as inhibition of infection at 5 uM after 48 to 72 hrs by flow cytometry; format: functional; conditions: Human immunodeficiency virus 1, B
[2] = Cytotoxicity against HIV1 pseudovirus infected in human B cells; format: cell-based; conditions: b cell
[3] = test system: Human immunodeficiency virus 1; assay: Antiviral activity against HIV1 pseudovirus infected in human B cell assessed as inhibition of infection; format: functional, organism-based; conditions: Human immunodeficiency virus 1, B

Structure (SMILES) | inhibition at 5 µM [1] | other results
CCCC(=O)OCCCNC(=S)Nc1cc(OC)c(Cl)cc1OC | 65% | –
CCCSCCCNC(=O)Nc1cc(OC)c(Cl)cc1OC | – | Activity [2]: Toxic
CCCC(=O)OCCCN/C(=N/c1cc(OC)c(Cl)cc1OC)SC(=O)CCC | 87% | –
COC(=O)CCCNC(=S)Nc1cc(OC)c(Cl)cc1OC | 73% | –
CCCSCCCNC(=S)Nc1cc(OC)c(Cl)cc1OC | 24% | –
CCOC(=O)CCNC(=S)Nc1cc(OC)c(Cl)cc1OC | 66% | –
COCCCNC(=S)Nc1cc(OC)c(Cl)cc1OC | 105% | –
CCCOCCCNC(=O)Nc1cc(OC)c(Cl)cc1OC | 47% | –
CCCCOC(=O)CCNC(=S)Nc1cc(OC)c(Cl)cc1OC | 43% | –
CCOCCCNC(=S)Nc1cc(OC)c(Cl)cc1OC | 66% | –
CCCNCCCNC(=S)Nc1cc(OC)c(Cl)cc1OC | 83% | –
COC(=O)CCCNC(=O)Nc1cc(OC)c(Cl)cc1OC | 87% | –
CCC[S+]([O-])CCCNC(=S)Nc1cc(OC)c(Cl)cc1OC (stereo not drawn) | 91% | –
CCCOCCCNC(=S)Nc1cc(OCC)c(Cl)cc1OCC | 58% | –
COc1cc(NC(=S)N2CCCC2=O)c(OC)cc1Cl | 104% | –
COc1cc(NC(=S)NCCCOC(C)=O)c(OC)cc1Cl | 123% | –
CCCOCCCNC(=S)Nc1cc(OC)c([N+](=O)[O-])cc1OC | 107% | –
CCCOCCNC(=S)Nc1cc(OC)c(Cl)cc1OC | 46% | –
CCCOC(=O)CCNC(=S)Nc1cc(OC)c(Cl)cc1OC | 66% | –

Structure (SMILES) | inhibition at 5 µM [1] | other results
CCCNC(=O)CCCNC(=S)Nc1cc(OC)c(Cl)cc1OC | 69% | –
COc1cc(NC(=S)NCCC(=O)O)c(OC)cc1Cl | 91% | –
COC(=O)CCNC(=S)Nc1cc(OC)c(Cl)cc1OC | 56% | –
CCCOC(=O)CCCNC(=S)Nc1cc(OC)c(Cl)cc1OC | 17% | IC50 [3]: 0.0011 µM
CCC(=O)OCCCNC(=S)Nc1cc(OC)c(Cl)cc1OC | 86% | –
CCCCCCCNC(=S)Nc1cc(OCC)c(Cl)cc1OCC | 69% | –
CCCCOC(=O)CCCNC(=S)Nc1cc(OC)c(Cl)cc1OC | 29% | –
CCCCCCCNC(=S)Nc1cc(OC)c(Cl)cc1OC | 87% | –
CCCCCCNC(=S)Nc1cc(OCC)c(Cl)cc1OCC | 107% | –
CCCCCCCNC(=O)Nc1cc(OC)c(Cl)cc1OC | 89% | –
CCOC(=O)CCCNC(=O)Nc1cc(OC)c(Cl)cc1OC | 65% | –
CCCOCCCNC(=S)Nc1cc(OC)c(Cl)cc1OC | – | IC50 [3]: 0.168 µM
CCOC(=O)CCCNC(=S)Nc1cc(OC)c(Cl)cc1OC | 24% | –
COc1cc(N=C(S)NCCCO)c(OC)cc1Cl | 92% | –
CCCSC(=O)CCCNC(=S)Nc1cc(OC)c(Cl)cc1OC | 79% | –
CCCCCCNC(=S)Nc1cc(OC)c(Cl)cc1OC | 87% | –
CCCN(CCCNC(=S)Nc1cc(OC)c(Cl)cc1OC)C(=O)OC(C)(C)C | – | Activity [2]: Toxic
CCCOCCCNC(=S)Nc1cc(OCCC)c(Cl)cc1OCCC | 107% | –
